≈ marks a conversion by molar mass, not a printed value. Where two headings read alike, the source gives them in different places.
Assays:
[1] = tested on: MCF-7 (human breast carcinoma); assay: Seven-day in vitro cytotoxicity, MCF-7; assay type: cell-based; details: for IC50: MCF7, 168 h
Description: (§1) The brine shrimp (Artemia salina Leach) test (BST) was performed as modified to determine LC50 values in μg/ml. Seven-day in vitro cytotoxicity tests against human tumor cell lines were carried out at the Purdue Cancer Center, using standard protocols for A-549 (human lung carcinoma), MCF-7 (human breast carcinoma) and HT-29 (human colon carcinoma) with adriamycin as a positive control. The reported ED50 values in μg/ml (Table 5) were tabulated from the same run in order to facilitate comparison for the SAR's.
(§2) Bioassays. The brine shrimp (Artemia salina Leach) test (BST) was performed as modified. Zhao et al., Phytochemistry, 33, p. 1065 (1993). Seven-day in vitro cytotoxicity tests against human tumor cell lines were carried out at the Purdue Cancer Center, using standard protocols for A-549 (human lung carcinoma), Gu, Z. M.; Fang, X.-P.; Miesbauer, L. R., Smith, D. L.; and McLaughlin, J. L., 30, 31, and 32-Hydroxybullatacinones: Bioactive Terminally-Hydroxylated Annonaceous Acetogenins from Annona bullata., J. Nat. Prod., 1993, 56, 870-876; MCF-7 (human breast carcinoma) McLaughlin, J. L., Chang, C.-J., and Smith, D. L., Simple Bench-Top Bioassays (Brine Shrimp and Potato Discs) for the Discoveries of Plant Antitumor Compounds: A Review of Recent Progress. In Kinghorn, A. D., Balandrin, J. (Eds): "Human Medicinal Agents from Plants", ACS Symposium Series, Washington, D.C., American Chemical Society, 1993, pp. 112-137; and HT-29 (human colon carcinoma), Mclaughlin, J.L., Chang, C.-J., Smith, D.L., "'Bench-Top' Bioassays for the Discovery of Bioactive Natural Products: An Update", in Rahman, Atta-ur- (Ed): "Studies in Natural Product Chemistry", Vol. 9, Amsterdam, Elsevier, 1991, pp. 383-409, with adriamycin as a positive control. The reported values (Table IV) were tabulated from the same run in order to facilitate comparison for the SAR's.
(§3) Bioassay. The extracts, fractions, and isolates were routinely evaluated for lethality to brine shrimp larvae (BST). Cytotoxicities against human solid tumor cells were measured at the Purdue Cell Culture Laboratory, Purdue Cancer Center, for the A-549 lung carcinoma, MCF-7 breast carcinoma, and HT-29 colon adenocarcinoma.
(§4) The brine shrimp lethality test (BST), on newly hatched naupleii, was performed in our laboratory as previously described. McLaughlin, Methods in Plant Biochemistry, Vol. 6, Hostettmann, Academic Press, London, pp. 1-33 (1991). Seven day cytotoxicities against human solid tumor cells were measured at the Cell Culture Laboratory, Purdue Cancer Center, for the A-549 lung carcinoma, MCF-7 breast carcinoma, and HT-29 colon adenocarcinoma. The respiratory functions of rat liver mitochondria (RMB) were measured polarographically by determination of their rates of oxygen consumption after the addition of acetogenins or their derivatives.

[2] = tested on: brine shrimp (Artemia salina Leach); assay: Brine shrimp lethality test (BST); assay type: in vivo; details: Artemia salina, read-out: BST LC50
Description: as §1, §2, §3, §4

[3] = tested on: A-549 (human lung carcinoma); assay: Seven-day in vitro cytotoxicity, A-549; assay type: cell-based; details: for IC50: A549, 168 h
Description: as §1, §2, §3, §4

[4] = tested on: HT-29 (human colon adenocarcinoma); assay: Seven-day in vitro cytotoxicity, HT-29; assay type: cell-based; details: HT-29, 168 h, read-out: HT-29 LC50, Table 5, same run
[5] = tested on: HT-29 (human colon adenocarcinoma); assay: Seven-day in vitro cytotoxicity, HT-29; assay type: cell-based; details: for IC50: HT-29, 168 h
Description: as §1, §2, §3, §4

rat liver mitochondria = assay: Rat mitochondrial bioassay (RMB), inhibition of oxygen uptake; assay type: biochemical; details: for RMB IC50: Table 17, oxygen consumption of rat liver mitochondria, parent and acetal derivative in the same run; for mitochondrial inhibition: rat liver mitochondria, result in words
Description: as §4
The oxidative phosphorylation pathway (or electron transport chain) is responsible for oxidizing NADH to NAD^+ and producing ATP from ADP and phosphate within the mitochondria. There are five enzyme complexes in this pathway: NADH-ubiquinone reductase (complex I), succinate-ubiquinone reductase (complex II), ubiquinone-cytochrome c reductase (complex III), cytochrome c oxidase (complex IV) and the F0 F1 -ATPase complex (complex V). The end point of the oxidative phosphorylation pathway is the reduction of oxygen (O2) to water in the mitochondria (thus, it is also called respiration), coupled with the synthesis of ATP by complex V. State 4 respiration is the oxidation of substrates in the absence of a phosphate acceptor (e.g., ADP). State 3 respiration occurs when a phosphate acceptor is present and oxygen utilization increases. The ratio of State 3 respiration to State 4 respiration is the respiratory control ratio (RCR).
The process of respiration can be measured by using an oxygen electrode to detect the amount of oxygen present in the assay cell. If respiration is occurring normally, the concentration of oxygen should slowly decrease as it is reduced to water. However, if there is some type of inhibition of oxidative phosphorylation occurring, the oxygen level will no longer decrease at the same rate. This rate of oxygen usage can be visualized by a chart recorder connected to the oxygen electrode. At normal respiration,a decreasing baseline slope will be established. During inhibition, however, the baseline slope should decrease (i.e., the slope will move closer to zero), since the oxygen present is no longer being reduced. In other words, the oxygen concentration in the assay cell is no longer decreasing at the same rate as in normal respiration. Furthermore, inhibition sites at specific complexes can be determined by competitive inhibition studies. This is accomplished by addition of a known inhibitor of, e.g., complex I, followed by the new respiration-inhibiting compound. […] This can be verified by trying inhibitors at other sites and by reversing the order, i.e., adding the new compound and then the known inhibitor.
The method for isolating rat liver mitochondria essentially followed the published methodology. Ahammadsahib et al., Life Sciences, 53, pgs. 1113-1120 (1993). The isolation buffer used for the isolation of mitochondria from rat liver consisted of 4 mM Tris-HC1, 0.5 mM EDTA, and 250 mM sucrose at a pH of 7.4. The isolation buffer was kept at refrigeration temperature at all times by storing on ice during the whole procedure. The rats were supplied by Sprague-Dawley, were male, and weighed approximately 300-320 grams. They were sacrificed with carbon dioxide, and the livers were removed and immediately placed in the isolation buffer on ice. The livers were then rinsed with several washings of cold buffer, cut into pieces, and homogenized. The homogenates were then centrifuged (Sorvall Superspeed RC2-B, 4° C) for 10 minutes at approximately 2000 rpms; the supernatant was next centrifuged for 20 minutes at approximately 9000 rpms. The pellet was reserved and resuspended in 2 ml of assay buffer with a glass pipet. The assay buffer consisted of 100 mM KC1, 5 mM KH2 PO4, 1 mM EDTA, 5 mM glutamate, 1 mM malate, and 20 mM Tris-HCl at a pH of 7.4 and was stored at room temperature. […]

[6] = tested on: A2780 human ovarian cancer xenografts; details: 50 μg/kg; athymic mice bearing A2780 human ovarian cancer xenografts; cited from earlier work
[7] = read-out: MCF-7 ED50, Table 17, seven day cytotoxicity, same run
[8] = read-out: MCF-7 LC50, Table 5, seven-day cytotoxicity, same run
[9] = read-out: HT-29 ED50, Table 17, seven day cytotoxicity, same run
[10] = Table 17, seven day cytotoxicity, same run, read-out: MCF-7 ED50
[11] = Table 17, seven day cytotoxicity, same run, read-out: A-549 ED50
[12] = Table 17, seven day cytotoxicity, same run, read-out: HT-29 ED50

COc1cccc2c1C(=O)c1c(O)c3c(c(O)c1C2=O)C[C@@](O)(C(=O)CO)C[C@@H]3O[C@H]1C[C@H](N)[C@H](O)[C@H](C)O1 [Adriamycin, adriamycin, reference compound]
IC50 [1, 7]: 401 ng/mL (≈ 738 nM) | IC50 [1, 8]: 17.6 ng/mL (≈ 32.4 nM) | IC50 ([1]; read-out: MCF-7 LC50, Table 12, same run): 231 ng/mL (≈ 425 nM) | EC50 ([1]; MCF7, read-out: MCF-7): 519 ng/mL (≈ 955 nM) | LC50 ([2]; Table 5, brine shrimp larvae): 257 ng/mL (≈ 473 nM) | LC50 ([2]; Table 12): 80 ng/mL (≈ 147 nM) | LC50 ([2]; Table 17, same run): 80 ng/mL (≈ 147 nM) | IC50 ([3]; read-out: A-549 ED50): 4.19 ng/mL (≈ 7.71 nM) | IC50 ([3]; read-out: A-549 LC50): 0.104 ng/mL (≈ 0.191 nM) | EC50 ([3]; A549, read-out: A-549): 8.5 ng/mL (≈ 15.6 nM) | IC50 [4]: 0.153 ng/mL (≈ 0.281 nM) | IC50 [5, 9]: 35.5 ng/mL (≈ 65.3 nM) | IC50 ([5]; read-out: HT-29 LC50, Table 12, same run): 39.2 ng/mL (≈ 72.1 nM) | EC50 ([5]; HT-29, read-out: HT-29): 37.2 ng/mL (≈ 68.4 nM)

CCCCCCCCCC[C@@H](O)[C@H]1CC[C@H]([C@H]2CC[C@@H]([C@@H]3CC[C@@H](CCCCCCC[C@@H]4CC(CC(C)=O)C(=O)O4)O3)OCO2)O1 (stereo partly drawn) [Compound 25, 16,19-Formaldehyde acetal derivatives of (2,4-cis and trans)-bullatanocinones]
IC50 [1, 10]: 1280 ng/mL (≈ 1970 nM) | LC50 ([2]; Table 17, same run): 15 ng/mL (≈ 23 nM) | IC50 [3, 11]: 0.0677 ng/mL (≈ 0.104 nM) | RMB IC50 (rat liver mitochondria): 28.3 n moles/Lt/mg protein

CCCCCCCCCCCCCC[C@@H](O)[C@H]1CC[C@H]([C@H]2CC[C@@H](CCCCC[C@@H](O)CC3=C[C@H](C)OC3=O)OCO2)O1 [Compound 9, 10,13-Formaldehyde acetal derivative of goniothalamicin]
IC50 [1, 10]: 0.409 ng/mL (≈ 0.672 nM) | LC50 ([2]; Table 17, same run): 53.8 ng/mL (≈ 88.4 nM) | IC50 [3, 11]: 1050 ng/mL (≈ 1720 nM) | RMB IC50 (rat liver mitochondria): 203.1 n moles/Lt/mg protein | IC50 [5, 12]: 0.0219 ng/mL (≈ 0.036 nM)

CCCCCCCCCCCCCC[C@@H](O)[C@H]1CC[C@H]([C@H](O)CC[C@H](O)CCCCC[C@@H](O)CC2=C[C@H](C)OC2=O)O1 [Compound 8, Goniothalamicin, reference compound]
IC50 [1, 10]: 0.00573 ng/mL (≈ 0.0096 nM) | LC50 ([2]; Table 17, same run): 37000 ng/mL (≈ 62000 nM) | IC50 [3, 11]: 0.00711 ng/mL (≈ 0.0119 nM) | RMB IC50 (rat liver mitochondria): 554.8 n moles/Lt/mg protein

CCCCCCCCCC[C@H](O)[C@H]1CC[C@H]([C@H](O)CC[C@H](O)[C@@H]2CC[C@@H](CCCCCCC[C@@H](O)CC3=C[C@H](C)OC3=O)O2)O1 [Compound 18, Bullatalicin, reference compound]
IC50 [1, 10]: 262 ng/mL (≈ 410 nM) | LC50 ([2]; Table 17, same run): 1200 ng/mL (≈ 1880 nM) | RMB IC50 (rat liver mitochondria): 19.2 n moles/Lt/mg protein | IC50 [5, 12]: 6.48e-05 ng/mL (≈ 0.000101 nM)

CCCCCCCCCCCCCC[C@@H](O)[C@H](O)CC[C@H](O)[C@@H]1CC[C@@H](CCCCC[C@@H](O)CC2=C[C@H](C)OC2=O)O1 [Compound 10, Gigantetrocin A, reference compound]
IC50 [1, 10]: 0.355 ng/mL (≈ 0.595 nM) | LC50 ([2]; Table 17, same run): 600 ng/mL (≈ 1010 nM) | IC50 [3, 11]: 4.52e-05 ng/mL (≈ 7.57e-05 nM) | RMB IC50 (rat liver mitochondria): 287.1 n moles/Lt/mg protein

CCCCCCCCCCC(O)C1CCC(C2CCC(C(O)CCCCC(O)CCCCCCCC3=CC(C)OC3=O)O2)O1 (stereo not shown) [Compound 1, Bullatin]
IC50 [1, 8]: 0.00833 ng/mL (≈ 0.0134 nM) | LC50 ([2]; Table 5, brine shrimp larvae): 4 ng/mL (≈ 6.42 nM) | IC50 ([3]; read-out: A-549 LC50): 0.00939 ng/mL (≈ 0.0151 nM) | IC50 [4]: 0.00378 ng/mL (≈ 0.00607 nM) | mitochondrial inhibition (rat liver mitochondria): high activity

CCCCCC[C@H]1CCC[C@@H]([C@H]2CC[C@H]([C@H]3CC[C@@H]([C@@H]4CC[C@@H](CCCCCCCCCC5=C[C@H](C)OC5=O)O4)OCO3)O2)OCO1 [Compound 14, 16,19- and 24,28-bis-formaldehyde acetal derivative]
IC50 [1, 10]: 1 ng/mL (≈ 1.51 nM) | LC50 ([2]; Table 17, same run): 10200 ng/mL (≈ 15400 nM) | IC50 [3, 11]: 1780 ng/mL (≈ 2680 nM) | IC50 [5, 12]: 0.000289 ng/mL (≈ 0.000436 nM)

CCCCCCCCCC[C@@H](O)[C@H]1CC[C@H]([C@H](O)CC[C@H](O)[C@@H]2CC[C@@H](CCCCCCC[C@@H]3CC(CC(C)=O)C(=O)O3)O2)O1 (stereo partly drawn) [Compound 24, (2,4-Cis and trans)bullatanocinones, reference compound]
IC50 [1, 7]: 293 ng/mL (≈ 459 nM) | LC50 ([2]; Table 17, same run): 280 ng/mL (≈ 438 nM) | IC50 ([3]; read-out: A-549 ED50): 0.643 ng/mL (≈ 1.01 nM) | RMB IC50 (rat liver mitochondria): 61.1 n moles/Lt/mg protein | IC50 [5, 9]: 2.34e-05 ng/mL (≈ 3.66e-05 nM)

CCCCCCCCCC[C@H](O)[C@H]1CC[C@H]([C@H](O)CC[C@H](O)[C@@H]2CC[C@@H](CCCCCCC[C@@H]3CC(CC(C)=O)C(=O)O3)O2)O1 (stereo partly drawn) [Compound 26, (2,4-Cis and trans)-bullatalicinones, reference compound]
IC50 [1, 7]: 1.57 ng/mL (≈ 2.46 nM) | LC50 ([2]; Table 17, same run): 470 ng/mL (≈ 736 nM) | IC50 ([3]; read-out: A-549 ED50): 0.0562 ng/mL (≈ 0.088 nM) | RMB IC50 (rat liver mitochondria): 23.0 n moles/Lt/mg protein

CCCCCCCCCC[C@H](O)[C@H]1CC[C@H]([C@H]2CC[C@H]([C@H](O)CCCCCCCCCC[C@@H](O)CC3=C[C@H](C)OC3=O)O2)O1 [Bullatacin, reference compound]
tumor growth inhibition (TGI) [6]: 67% | mitochondrial inhibition (rat liver mitochondria): high activity

From US5536848A, “Bioactive acetogenins and derivatives” (Purdue Research Foundation, priority 1994, dated 1996)
